Like-named read-outs stand apart in the source and are kept apart here.
What was measured:
[1] = molecular target: Thermosynechococcus vulcanus NIES-2134 protoporphyrinogen IX oxidase CyPPO18, wild type, SEQ ID NO: 3 (MBP fusion) (Thermosynechococcus vestitus, UniProt Q8DLV2); format: biochemical; details: CyPPO18 WT; 50 μM protoporphyrinogen IX, pH 7.5, room temperature, 30 min
[2] = test system: PPO-deficient BT3 E. coli (ΔPPO) transformed with CyPPO19 variant R89A+F360V (Thermosynechococcus elongatus PKUAC-SCTE542, SEQ ID NO: 1); experiment: Herbicide tolerance test in E. coli, CyPPO19 R89A+F360V; format: cell-based; details: LB agar, 0 to 2,000 μM herbicide, 37° C., 16-20 hours
Description: (§1) To enhance the PPO-inhibiting herbicide resistance of CyPPO19 and CyPPO18, PPO variant genes of the above example 2 were constructed. They were transformed to BT3 (ΔPPO) strain which is deficient of PPO activity and cultured in LB media with PPO-inhibiting herbicide, thereby examining whether growth of transformed BT3 was not inhibited.
(§2) BT3 competent cells were transformed with the pET303-CyPPO19 (wild type), pET303-CyPPO18 (wild type) plasmids, and those with a mutation(s) constructed (refer to example 2) via heat shock method, and were cultured in LB agar media containing ampicillin.
(§3) Single colony transformed with each CyPPO gene was cultured in 3 mL of LB broth (LPSS) containing ampicillin for more than 12 hours, and then was subcultured in LB broth until absorbance (OD600) reached 0.5 to 1. Then, it was diluted with LB broth to OD600=0.5. Again, the diluted solution was serially diluted 4 times by a factor of one tenth. […]
(§4) Then, 10 μL of each diluted solution of E. coli was dropped on the plate and cultured at 37° C. under dark for 16-20 hours. PPO-inhibiting herbicide resistance was evaluated with the extent of E. coli growth containing each gene was observed.
(§5) The extent of herbicide resistance was evaluated by the relative growth of variants to that of wild type, and listed in Tables 9 and 10 and FIGS. 3 to 32. […]

[3] = test system: PPO-deficient BT3 E. coli (ΔPPO) transformed with CyPPO19 variant V165C+F360M (Thermosynechococcus elongatus PKUAC-SCTE542, SEQ ID NO: 1); experiment: Herbicide tolerance test in E. coli, CyPPO19 V165C+F360M; format: cell-based; details: LB agar, 0 to 2,000 μM herbicide, 37° C., 16-20 hours
Description: as §1, §2, §3, §4, §5

[4] = test system: PPO-deficient BT3 E. coli (ΔPPO) transformed with CyPPO18 variant R89A+V165C+F360I (Thermosynechococcus vulcanus NIES-2134, SEQ ID NO: 3); experiment: Herbicide tolerance test in E. coli, CyPPO18 R89A+V165C+F360I; format: cell-based; design: key to the marks not given beside the values; details: LB agar, 0 to 2,000 μM herbicide, 37° C., 16-20 hours
Description: as §1, §2, §3, §4, §5

[5] = test system: PPO-deficient BT3 E. coli (ΔPPO) transformed with CyPPO18 variant A167L+V305M+F360M (Thermosynechococcus vulcanus NIES-2134, SEQ ID NO: 3); format: cell-based; design: key to the marks not given beside the values; details: LB agar, 0 to 2,000 μM herbicide, 37° C., 16-20 hours
Description: as §1, §2, §3, §4, §5

[6] = test system: PPO-deficient BT3 E. coli (ΔPPO) transformed with CyPPO18 variant L327T+F360M (Thermosynechococcus vulcanus NIES-2134, SEQ ID NO: 3); experiment: Herbicide tolerance test in E. coli, CyPPO18 L327T+F360M; format: cell-based; design: key to the marks not given beside the values; details: LB agar, 0 to 2,000 μM herbicide, 37° C., 16-20 hours
Description: as §1, §2, §3, §4, §5

[7] = test system: PPO-deficient BT3 E. coli (ΔPPO) transformed with CyPPO19 variant R89A+F360T (Thermosynechococcus elongatus PKUAC-SCTE542, SEQ ID NO: 1); experiment: Herbicide tolerance test in E. coli, CyPPO19 R89A+F360T; format: cell-based; details: LB agar, 0 to 2,000 μM herbicide, 37° C., 16-20 hours
Description: as §1, §2, §3, §4, §5

[8] = molecular target: Thermosynechococcus elongatus PKUAC-SCTE542 protoporphyrinogen IX oxidase CyPPO19 (SEQ ID NO: 1) variant A167C (MBP fusion) (Thermosynechococcus sichuanensis, UniProt A0A7D6JSC1, A167C); experiment: biochemical
Chain of Thermosynechococcus elongatus PKUAC-SCTE542 protoporphyrinogen IX oxidase CyPPO19 (SEQ ID NO: 1) variant A167C (MBP fusion) (A0A7D6JSC1 entry or part of it A167C): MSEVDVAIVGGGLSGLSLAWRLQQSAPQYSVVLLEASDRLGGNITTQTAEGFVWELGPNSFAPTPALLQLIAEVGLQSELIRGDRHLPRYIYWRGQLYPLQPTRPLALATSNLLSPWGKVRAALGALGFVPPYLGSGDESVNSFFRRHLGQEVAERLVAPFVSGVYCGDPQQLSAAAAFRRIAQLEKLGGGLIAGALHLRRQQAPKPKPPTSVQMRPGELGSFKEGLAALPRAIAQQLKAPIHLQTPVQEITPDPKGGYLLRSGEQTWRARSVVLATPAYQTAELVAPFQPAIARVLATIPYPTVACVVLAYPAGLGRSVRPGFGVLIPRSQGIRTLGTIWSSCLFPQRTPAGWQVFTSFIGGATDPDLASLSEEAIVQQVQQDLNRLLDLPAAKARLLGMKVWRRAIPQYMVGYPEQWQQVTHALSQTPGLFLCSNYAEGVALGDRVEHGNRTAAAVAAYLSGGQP

[9] = molecular target: Thermosynechococcus vulcanus NIES-2134 protoporphyrinogen IX oxidase CyPPO18 (SEQ ID NO: 3) variant V165C (MBP fusion) (Thermosynechococcus vestitus, UniProt Q8DLV2, V165C); format: biochemical; details: 50 μM protoporphyrinogen IX, pH 7.5, room temperature, 30 min
Chain of Thermosynechococcus vulcanus NIES-2134 protoporphyrinogen IX oxidase CyPPO18 (SEQ ID NO: 3) variant V165C (MBP fusion) (Q8DLV2 entry or part of it V165C): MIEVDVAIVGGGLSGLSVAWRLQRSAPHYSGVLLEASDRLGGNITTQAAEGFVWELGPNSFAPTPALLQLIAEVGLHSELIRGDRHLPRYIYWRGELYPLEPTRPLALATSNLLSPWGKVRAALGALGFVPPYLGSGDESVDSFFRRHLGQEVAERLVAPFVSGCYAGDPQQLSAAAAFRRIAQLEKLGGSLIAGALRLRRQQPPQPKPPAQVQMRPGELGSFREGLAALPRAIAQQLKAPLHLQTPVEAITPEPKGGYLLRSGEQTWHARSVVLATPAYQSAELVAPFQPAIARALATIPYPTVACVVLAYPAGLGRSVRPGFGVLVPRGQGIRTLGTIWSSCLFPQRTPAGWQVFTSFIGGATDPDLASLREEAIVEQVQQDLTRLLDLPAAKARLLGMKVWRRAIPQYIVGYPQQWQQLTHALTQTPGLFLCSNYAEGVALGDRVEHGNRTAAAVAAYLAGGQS

[10] = molecular target: Thermosynechococcus elongatus PKUAC-SCTE542 protoporphyrinogen IX oxidase CyPPO19 (SEQ ID NO: 1) variant V165C (MBP fusion) (Thermosynechococcus sichuanensis, UniProt A0A7D6JSC1, V165C); experiment: PPO enzyme inhibition assay (IC50 for herbicides), CyPPO19 V165C fused to MBP; format: biochemical
Chain of Thermosynechococcus elongatus PKUAC-SCTE542 protoporphyrinogen IX oxidase CyPPO19 (SEQ ID NO: 1) variant V165C (MBP fusion) (A0A7D6JSC1 entry or part of it V165C): as the sequence (A0A7D6JSC1 entry or part of it A167C) above, with V165C, C167A counted along it

[11] = test system: PPO-deficient BT3 E. coli (ΔPPO) transformed with CyPPO18 variant R89A+F360V (Thermosynechococcus vulcanus NIES-2134, SEQ ID NO: 3); format: cell-based; details: LB agar, 0 to 2,000 μM herbicide, 37° C., 16-20 hours
Description: as §1, §2, §3, §4, §5

[12] = test system: PPO-deficient BT3 E. coli (ΔPPO) transformed with CyPPO18 variant V165C+A167L+F360I (Thermosynechococcus vulcanus NIES-2134, SEQ ID NO: 3); experiment: Herbicide tolerance test in E. coli, CyPPO18 V165C+A167L+F360I; format: cell-based; design: key to the marks not given beside the values; details: LB agar, 0 to 2,000 μM herbicide, 37° C., 16-20 hours
Description: as §1, §2, §3, §4, §5

[13] = molecular target: Thermosynechococcus vulcanus NIES-2134 protoporphyrinogen IX oxidase CyPPO18 (SEQ ID NO: 3) variant R89A (MBP fusion) (Thermosynechococcus vestitus, UniProt Q8DLV2, R89A); experiment: PPO enzyme inhibition assay (IC50 for herbicides), CyPPO18 R89A fused to MBP; format: biochemical; details: 50 μM protoporphyrinogen IX, pH 7.5, room temperature, 30 min
Chain of Thermosynechococcus vulcanus NIES-2134 protoporphyrinogen IX oxidase CyPPO18 (SEQ ID NO: 3) variant R89A (MBP fusion) (Q8DLV2 entry or part of it R89A): as the sequence (Q8DLV2 entry or part of it V165C) above, with R89A, C165V counted along it

[14] = molecular target: Thermosynechococcus vulcanus NIES-2134 protoporphyrinogen IX oxidase CyPPO18 (SEQ ID NO: 3) variant A167L (MBP fusion) (Thermosynechococcus vestitus, UniProt Q8DLV2, A167L); experiment: PPO enzyme inhibition assay (IC50 for herbicides), CyPPO18 A167L fused to MBP; format: biochemical; details: 50 μM protoporphyrinogen IX, pH 7.5, room temperature, 30 min
Chain of Thermosynechococcus vulcanus NIES-2134 protoporphyrinogen IX oxidase CyPPO18 (SEQ ID NO: 3) variant A167L (MBP fusion) (Q8DLV2 entry or part of it A167L): as the sequence (Q8DLV2 entry or part of it V165C) above, with C165V, A167L counted along it

[15] = test system: PPO-deficient BT3 E. coli (ΔPPO) transformed with CyPPO19 variant V165C+F360I (Thermosynechococcus elongatus PKUAC-SCTE542, SEQ ID NO: 1); experiment: Herbicide tolerance test in E. coli, CyPPO19 V165C+F360I; format: cell-based; details: LB agar, 0 to 2,000 μM herbicide, 37° C., 16-20 hours
Description: as §1, §2, §3, §4, §5

[16] = test system: PPO-deficient BT3 E. coli (ΔPPO) transformed with CyPPO19 variant R89A+F360L (Thermosynechococcus elongatus PKUAC-SCTE542, SEQ ID NO: 1); experiment: Herbicide tolerance test in E. coli, CyPPO19 R89A+F360L; format: cell-based; details: LB agar, 0 to 2,000 μM herbicide, 37° C., 16-20 hours
Description: as §1, §2, §3, §4, §5

Chain of Thermosynechococcus vulcanus NIES-2134 protoporphyrinogen IX oxidase CyPPO18, wild type, SEQ ID NO: 3 (MBP fusion) (Q8DLV2 entry or part of it): as the sequence (Q8DLV2 entry or part of it V165C) above, with C165V counted along it

Row | SMILES | IC50 [1] [nM] | tolerance level (relative growth of variant to wild type) [2] | tolerance level (relative growth of variant to wild type) [3] | tolerance level (relative growth of variant to wild type) [4] | tolerance level (relative growth of variant to wild type) [5] | tolerance level (relative growth of variant to wild type) [6] | tolerance level (relative growth of variant to wild type) [7] | IC50 [8] [nM] | IC50 [9] [nM] | IC50 [10] [nM] | tolerance level (relative growth of variant to wild type) [11] | tolerance level (relative growth of variant to wild type) [12] | IC50 [13] [nM] | IC50 [14] [nM] | tolerance level (relative growth of variant to wild type) [15] | tolerance level (relative growth of variant to wild type) [16] | IC50 ([8]; CyPPO19 A167C, 50 μM protoporphyrinogen IX, pH 7.5, room temperature, 30 min) [nM] | IC50 ([10]; CyPPO19 V165C, 50 μM protoporphyrinogen IX, pH 7.5, room temperature, 30 min) [nM]
1 | CCOc1cc(Oc2ccc(C(F)(F)F)cc2Cl)ccc1[N+](=O)[O-] [Oxyfluorfen] | 103 | + | ++ | ++ | ++ | ++ | + | 649 | 502 | 3210 | + | ++ | 491 | 2810 | + | + | – | –
2 | Cc1nn(-c2cc(CC(Cl)C(=O)O)c(Cl)cc2F)c(=O)n1C(F)F (centres unmarked) [Carfentrazone] | 566 | + | + | ++ | ++ | ++ | + | – | 1220 | – | ++ | ++ | 872 | 4010 | + | + | 3530 | 3090
